According to PMC9837035 (Nature Communications, 2023):
Values joined by “and” are separate entries in the source; they are usually repeats but may differ in a detail not shown here. Identical values can stand only once.

Legend:
[1] = system: mice; assay: Mouse acute toxicity assay, survival; format: in vivo; settings: intravenous, 2-week observation
Method: All animal studies were approved by the Institutional Committee for Animal Experiments of the Institute of Microbial Chemistry, and were performed in accordance with relevant guidelines and regulations to minimize animal suffering. Four-week-old female ICR mice were purchased from Charles River Breeding Laboratories (Yokohama, Japan) and maintained in a specific pathogen-free barrier facility. […] Samples were dissolved in saline containing 10% DMSO and 1% Tween 80 and injected intravenously into mice.

[2] = system: β- and γ-globin genes in HUDEP-2 cells; assay: RT-qPCR of β- and γ-globin in HUDEP-2 cells; format: cell-based, human; settings: for β-globin expression in HUDEP-2 cells / γ-globin expression in HUDEP-2 cells: relative to DMSO = 1, replicate values
Method: Total cellular RNA was prepared using the Tissue Total RNA Mini Kit (FAVORGEN), and cDNA was synthesized using ReverTra Ace Master Mix (TOYOBO). Expression of target genes was analyzed using THUNDERBIRD SYBR qPCR Mix (TOYOBO) on a CFX Connect Real Time System (Bio-Rad). The qPCR data were acquired on CFX Maestro (Bio-Rad). Primers are listed in Supplementary Table 10. GAPDH was used as a reference. Primers were purchased from INTEGRATED DNA TECHNOLOGIES or FASMAC.

[3] = system: BGLT3 RNA in HUDEP-2 cells; assay: RT-qPCR of BGLT3 in HUDEP-2 cells; format: cell-based, human; settings: for BGLT3 expression in HUDEP-2 cells: relative to DMSO = 1, replicate values
How it was run: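 Total RNA reverse-transcribed to cDNA, then target transcripts quantified by SYBR Green real-time qPCR. Expression normalized to GAPDH as reference gene.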

[4] = Cell viability assay (WST-8), H9c2; format: cell-based, rat; settings: rat, H9c2 myoblast cells, control (0 μM) = 100
Method: (§1) A WST-8 (2-(2-methoxy-4-nitrophenyl)-3-(4-nitrophenyl)-5-(2,4-disulfophenyl)-2H-tetrazolium) assay using a Cell Counting Kit-8 (DOJINDO) was performed to measure cell viability using an EnSpire microplate reader (PerkinElmer).

[5] = system: rat myoblast cell line H9c2; assay: Cell viability assay (WST-8), H9c2; format: cell-based; settings: control (0 μM) = 100
Method: as §1

[6] = system: HUDEP-2 cells; assay: Cell viability assay (WST-8), HUDEP-2; format: cell-based, human; settings: for cell viability in HUDEP-2 cells: control (0 μM) = 100
Method: as §1

[7] = Cell viability assay (WST-8), HUDEP-2; format: cell-based, human; settings: human, HUDEP-2 cells, control (0 μM) = 100
Method: as §1

[8] = system: H3K9me2 in HUDEP-2 cells; assay: Western blotting of H3K9me2 in HUDEP-2 cells; format: cell-based, human; settings: HUDEP-2, 4 days
Method: Preparation of cell lysates and western blotting were performed as described previously. Protein from cells lysates in lysis buffer (50 mM Tris-HCl (pH 7.5), 150 mM NaCl, 5 mM EDTA, 0.1% NP-40, 1 mM dithiothreitol) were separated by sodium dodecyl sulfate–polyacrylamide gel electrophoresis (SDS-PAGE) and transferred to a polyvinylidene difluoride (PVDF) membrane (Millipore) by electroblotting. The membranes incubated with primary antibodies overnight at 4 °C and secondary antibodies for 1 h at room temperature. The immune complexes were detected with the Immobilon Western Chemiluminescent HRP Substrate (Millipore). Luminescence was analyzed on a FUSION SOLO S (Vilber). Western blot bands were visualized using Evolution Capt software (M&S Instruments Inc.). Primary antibodies used were anti-G9a (1:1000, CST, #3306), anti–α-tubulin (1:5000, Abcam, ab18251), anti-H3K9me2 (1:3000, Abcam, ab1220), anti-H3 (1:5000, Abcam, ab1791), anti-H3K27me3 (1:3000, Sigma, 07-449), anti-GLP (1:1000, CST, #35005), anti-FLAG (100 ng/ml, Fujifilm, 01422383), anti-His (1:5000, MBL, PM032), anti-BCL11A (1:1000, abcam, ab19487), anti-ZBTB7A (1:1000, CST, #50565), anti-CHD3 (1:1000, Novus Biologicals, NB100-60412), and anti-CHD4 (1:1000, abcam, ab240640). Uncropped scans of all of the blots are available in Source Data file.

COc1cc2c(NC3CCN(C(C)C)CC3)nc(C3CCCCC3)nc2cc1OCCCN1CCCC1 [UNC0638]
Number of alive mice ([1]; 1.5625 mg/kg): 3/3
Number of alive mice ([1]; 3.125 mg/kg): 3/3
Number of alive mice ([1]; 6.25 mg/kg): 0/3
Number of alive mice ([1]; 12.5 mg/kg): 0/3
Number of alive mice ([1]; 25 mg/kg): 0/3
β-globin expression in HUDEP-2 cells ([2]; 0.01 μM): 1.0792 and 0.9641 and 1.119
γ-globin expression in HUDEP-2 cells ([2]; 0.01 μM): 2.161 and 1.8663 and 1.942
β-globin expression in HUDEP-2 cells ([2]; 0.03 μM): 0.8727 and 0.8955 and 0.9796
γ-globin expression in HUDEP-2 cells ([2]; 0.03 μM): 2.931 and 2.632 and 2.938
β-globin expression in HUDEP-2 cells ([2]; 0.1 μM): 0.7919 and 0.6648 and 0.9576
γ-globin expression in HUDEP-2 cells ([2]; 0.1 μM): 3.187 and 2.85 and 3.299
β-globin expression in HUDEP-2 cells ([2]; 0.3 μM): 0.6454 and 0.4522 and 0.612
γ-globin expression in HUDEP-2 cells ([2]; 0.3 μM): 4.136 and 2.987 and 3.803
γ-globin mRNA level ([2]; HUDEP-2): induced the expression of both BGLT3 and γ-globin
BGLT3 expression in HUDEP-2 cells ([3]; 0.01 μM): 1.173 and 1.9605 and 1.436
BGLT3 expression in HUDEP-2 cells ([3]; 0.03 μM): 1.045 and 1.983 and 1.934
BGLT3 expression in HUDEP-2 cells ([3]; 0.1 μM): 1.162 and 3.201 and 2.863
BGLT3 expression in HUDEP-2 cells ([3]; 0.3 μM): 3.578 and 5.267 and 5.078
BGLT3 expression ([3]; HUDEP-2): induced the expression of both BGLT3 and γ-globin
viability at 0.156 μM ([4]; 0.156 μM): 90.4%
viability at 0.625 μM ([4]; 0.625 μM): 92.4%
cell viability in H9c2 cells ([5]; 0.039 μM): 83.333 and 114.948 and 83.569
cell viability in H9c2 cells ([5]; 0.156 μM): 95.490 and 88.952
cell viability in H9c2 cells ([5]; 0.625 μM): 87.887 and 83.853
cell viability in HUDEP-2 cells ([6]; 0.00457247 μM): 93.1765 and 99.8296
cell viability in HUDEP-2 cells ([6]; 0.0137174 μM): 92.549 and 98.1261
cell viability in HUDEP-2 cells ([6]; 0.0411523 μM): 91.9216 and 96.0818
cell viability in HUDEP-2 cells ([6]; 0.123457 μM): 90.9804 and 93.0153
cell viability in HUDEP-2 cells ([6]; 0.37037 μM): 82.1961 and 79.7274
cell viability in HUDEP-2 cells ([6]; 1.11111 μM): 35.1373 and 35.4344
cell viability in HUDEP-2 cells ([6]; 10 μM): 4.078 and 3.407
cytotoxic effect on viability ([6]; HUDEP-2, 3 days): severe cell toxicity
viability at 0.00457247 μM ([7]; 0.00457247 μM): 97.7%
viability at 0.0137174 μM ([7]; 0.0137174 μM): 96.8%
viability at 0.0411523 μM ([7]; 0.0411523 μM): 103%
viability at 0.123457 μM ([7]; 0.123457 μM): 98.7%
viability at 0.37037 μM ([7]; 0.37037 μM): 83.3%
viability at 1.11111 μM ([7]; 1.11111 μM): 36%
viability at 10 μM ([7]; 10 μM): 2.19%
cellular H3K9me2 levels [8]: reduction of H3K9me2 levels
